Data taken from US11000033B2, “Ketone or oxime compound, and herbicide” (NISSAN CHEMICAL CORPORATION, priority 2014, dated 2021).

What was measured:
Type in all cases: in vivo
Lolium multiflorum Lam. = experiment: Test Example 4: herbicidal effect by soil treatment (symbol K); conditions: application herbicide amount 320 g/ha
How it was run: (§1)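 Seeds were sown in sterilized diluvial soil, covered with about 1.5 cm of soil, and the soil surface was sprayed with a water-diluted emulsion of the compound at a predetermined rate. Plants grew in a greenhouse at 25° C. to 30° C.; effects were scored visually 3 weeks after application.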

beet = experiment: Test Example 5: effect on crop by foliage application, plastic box (symbol f); conditions: 320 g/ha, 3 weeks after application
How it was run: (§2)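 Crop seed is sown alongside grass and broadleaf weed species in spots in sterilized diluvial soil, then covered to a depth of about 1.5 cm. Plants grow in a greenhouse kept at 25° C. to 30° C.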

wheat [1] = experiment: Test Example 5: effect on crop by foliage application, plastic box (symbol e); conditions: 320 g/ha, 3 weeks after application
How it was run: as §2

Amaranthus retroflexus = experiment: Test Example 4: herbicidal effect by soil treatment (symbol N); conditions: application herbicide amount 320 g/ha
How it was run: as §1

[2] = test system: Echinochloa oryzacola Vasing.; experiment: Test Example 2: herbicidal activity, application during weed generation in submerged conditions (symbol A); conditions: Table 23; application herbicide amount 320 g/ha; grade 0-5 by criteria of Test Example 1
How it was run: (§3)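 Weeds emerging under flooded conditions were treated with compound formulated as an emulsion and diluted with water to the intended herbicide amount, poured onto the surface of 4 cm standing water. Seeds had been co-sown in alluvial soil; plants grew at 25° C. to 30° C. and were assessed after 3 weeks.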

[3] = test system: directly sowed rice plant; experiment: Test Example 3: effect on crop by foliage application, Wagner pot (symbol b); conditions: application herbicide amount 320 g/ha
How it was run: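 Alluvial soil in a 1/10000-are Wagner pot was flooded to a water depth of 0.1–0.5 cm. Echinochloa crus-galli var. crus-galli, Leptochloa chinensis, Cyperus difformis and rice were sown into it and grown in a greenhouse at 25–30 °C.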

Avena fatua = experiment: Test Example 4: herbicidal effect by soil treatment (symbol I); conditions: application herbicide amount 320 g/ha
How it was run: as §1

Scirpus juncoides = experiment: Test Example 2: herbicidal activity, application during weed generation in submerged conditions (symbol B); conditions: Table 23; application herbicide amount 320 g/ha; grade 0-5 by criteria of Test Example 1
How it was run: as §3

soybean = experiment: Test Example 4: effect on crop by soil treatment (symbol d); conditions: application herbicide amount 320 g/ha
How it was run: (§4)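 Crop seeds, among them rice, wheat, beet and rapeseed, were sown in sterilized diluvial soil and covered with about 1.5 cm of soil. Boxes were kept in a greenhouse at 25° C. to 30° C. for plant growth.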

rapeseed [4] = experiment: Test Example 5: effect on crop by foliage application, plastic box (symbol g); conditions: 320 g/ha, 3 weeks after application
How it was run: as §2

wheat [5] = experiment: Test Example 4: effect on crop by soil treatment (symbol e); conditions: application herbicide amount 320 g/ha
How it was run: as §4

rice = experiment: Test Example 4: effect on crop by soil treatment (symbol b); conditions: application herbicide amount 320 g/ha
How it was run: as §4

rapeseed [6] = experiment: Test Example 4: effect on crop by soil treatment (symbol g); conditions: application herbicide amount 320 g/ha
How it was run: as §4

Abutilon theophrasti = experiment: Test Example 5: herbicidal effect by foliage application, plastic box (symbol M); conditions: 320 g/ha, 3 weeks after application
How it was run: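 Seeds were sown in sterilized diluvial soil, covered with about 1.5 cm of soil and grown 14 days in a greenhouse at 25° C. to 30° C. An emulsifiable formulation diluted in water to a set rate was sprayed over foliage, and injury was scored 3 weeks later.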

rice plant = experiment: Test Example 5: effect on crop by foliage application, plastic box (symbol b); conditions: 320 g/ha, 3 weeks after application
How it was run: as §2

Structure (SMILES)	Herbicidal effect grade, K: Lolium multiflorum Lam. (Lolium multiflorum Lam.)	f: beet, effect on crop (criteria of Test Example 1) (beet)	e: wheat, effect on crop (criteria of Test Example 1) (wheat [1])	Herbicidal effect grade, N: Amaranthus retroflexus (Amaranthus retroflexus)	Herbicidal effect grade, A: Echinochloa oryzacola Vasing. [2]	effect on crop b (directly sowed rice plant), grade 0-5 [3]	Herbicidal effect grade, I: Avena fatua (Avena fatua)	Herbicidal effect grade, B: Scirpus juncoides (Scirpus juncoides)	Effect on crop grade, d: soybean (soybean)	g: rapeseed, effect on crop (criteria of Test Example 1) (rapeseed [4])	Effect on crop grade, e: wheat (wheat [5])	Effect on crop grade, b: directly sowed rice plant (rice)	Effect on crop grade, g: rapeseed (rapeseed [6])	M: Abutilon theophrasti, herbicidal effect (criteria of Test Example 1) (Abutilon theophrasti)	b: directly sowed rice plant, effect on crop (criteria of Test Example 1) (rice plant)	b (directly sowed rice plant) effect on crop grade ([3]; Table 24)
CON=C(C)CC1CC(OC(=O)N2CCOCC2)=C(c2c(C)cc(-c3ccc(Cl)cc3F)cc2C)C1=O (centres unmarked) [6-089]	3 (Herbicidal ratio of 40% or higher and lower than 70%)	0 (Herbicidal ratio of 5% or lower (almost no effect))	4 (Herbicidal ratio of 70% or higher and lower than 90%)	0 (Herbicidal ratio of 5% or lower (almost no effect))	5 (Herbicidal ratio of 90% or more (almost completely withered))	5 (Herbicidal ratio of 90% or more (almost completely withered))	0 (Herbicidal ratio of 5% or lower (almost no effect))	2 (Herbicidal ratio of 20% or higher and lower than 40%)	0 (Herbicidal ratio of 5% or lower (almost no effect))	4 (Herbicidal ratio of 70% or higher and lower than 90%)	0 (Herbicidal ratio of 5% or lower (almost no effect))	0 (Herbicidal ratio of 5% or lower (almost no effect))	0 (Herbicidal ratio of 5% or lower (almost no effect))	–	–	–
CON=C(C)CC1CC(OC(=O)N2CCOCC2)=C(c2c(C)cc(C)cc2OC)C1=O (centres unmarked) [6-094]	5 (Herbicidal ratio of 90% or more (almost completely withered))	–	4 (Herbicidal ratio of 70% or higher and lower than 90%)	0 (Herbicidal ratio of 5% or lower (almost no effect))	5 (Herbicidal ratio of 90% or more (almost completely withered))	5 (Herbicidal ratio of 90% or more (almost completely withered))	5 (Herbicidal ratio of 90% or more (almost completely withered))	2 (Herbicidal ratio of 20% or higher and lower than 40%)	0 (Herbicidal ratio of 5% or lower (almost no effect))	4 (Herbicidal ratio of 70% or higher and lower than 90%)	0 (Herbicidal ratio of 5% or lower (almost no effect))	5 (Herbicidal ratio of 90% or more (almost completely withered))	4 (Herbicidal ratio of 70% or higher and lower than 90%)	4 (Herbicidal ratio of 70% or higher and lower than 90%)	5 (Herbicidal ratio of 90% or more (almost completely withered))	–
CON=C(C)CC1CC(O)=C(c2c(F)cc(Br)cc2OC)C1=O (centres unmarked) [6-096]	5 (Herbicidal ratio of 90% or more (almost completely withered))	0 (Herbicidal ratio of 5% or lower (almost no effect))	3 (Herbicidal ratio of 40% or higher and lower than 70%)	0 (Herbicidal ratio of 5% or lower (almost no effect))	4 (Herbicidal ratio of 70% or higher and lower than 90%)	5 (Herbicidal ratio of 90% or more (almost completely withered))	3 (Herbicidal ratio of 40% or higher and lower than 70%)	0 (Herbicidal ratio of 5% or lower (almost no effect))	0 (Herbicidal ratio of 5% or lower (almost no effect))	4 (Herbicidal ratio of 70% or higher and lower than 90%)	0 (Herbicidal ratio of 5% or lower (almost no effect))	5 (Herbicidal ratio of 90% or more (almost completely withered))	0 (Herbicidal ratio of 5% or lower (almost no effect))	–	–	–
CON=C(C)CC1CC(O)=C(c2c(F)cc(-c3ccccc3)cc2OC)C1=O (centres unmarked) [6-107]	1 (Herbicidal ratio of 5% or higher and lower than 20%)	2 (Herbicidal ratio of 20% or higher and lower than 40%)	5 (Herbicidal ratio of 90% or more (almost completely withered))	–	5 (Herbicidal ratio of 90% or more (almost completely withered))	5 (Herbicidal ratio of 90% or more (almost completely withered))	3 (Herbicidal ratio of 40% or higher and lower than 70%)	5 (Herbicidal ratio of 90% or more (almost completely withered))	0 (Herbicidal ratio of 5% or lower (almost no effect))	4 (Herbicidal ratio of 70% or higher and lower than 90%)	4 (Herbicidal ratio of 70% or higher and lower than 90%)	5 (Herbicidal ratio of 90% or more (almost completely withered))	4 (Herbicidal ratio of 70% or higher and lower than 90%)	3 (Herbicidal ratio of 40% or higher and lower than 70%)	5 (Herbicidal ratio of 90% or more (almost completely withered))	–
COc1cc(Br)cc(F)c1C1=C(O)CC(CC(C)=O)C1=O (centres unmarked) [7-029]	3 (Herbicidal ratio of 40% or higher and lower than 70%)	0 (Herbicidal ratio of 5% or lower (almost no effect))	2 (Herbicidal ratio of 20% or higher and lower than 40%)	0 (Herbicidal ratio of 5% or lower (almost no effect))	–	–	0 (Herbicidal ratio of 5% or lower (almost no effect))	–	0 (Herbicidal ratio of 5% or lower (almost no effect))	1 (Herbicidal ratio of 5% or higher and lower than 20%)	0 (Herbicidal ratio of 5% or lower (almost no effect))	1 (Herbicidal ratio of 5% or higher and lower than 20%)	0 (Herbicidal ratio of 5% or lower (almost no effect))	–	–	0 (Herbicidal ratio of 5% or lower (almost no effect))
